Data on two substances can be found in publication PMC5627009, “Cyclotides Isolated from an Ipecac Root Extract Antagonize the Corticotropin Releasing Factor Type 1 Receptor” (Frontiers in Pharmacology, 2017).

Assay [1] concerns human V2R. Briefly: cAMP accumulation assay at vasopressin V2 receptor (LANCE Ultra cAMP). It counts as cell-based. The note with it: HEK293 transiently expressing human V2R, caripe 8 26 nM & 260 nM, 30 min, 23°C, five or more experiments in triplicate, not statistically different (One-way ANOVA). The method, then: Receptor-mediated cAMP accumulation was measured in HEK293 cells transiently transfected with the human CRF1R (with C-terminal GFP tag) using the LANCE® Ultra cAMP Detection kit (PerkinElmer, Waltham, MA, United States). To prepare for experiments, HEK293 cells were grown to confluence in a 6-well plate, followed by transfection with 2.5 μg of plasmid DNA per well using the Lipofectamine® 2000 transfection reagent (Thermo Fisher Scientific). After 4–6 h post-transfection, the cell media was replaced, followed by dissociation of cells via trituration and division of the cell suspension to avoid overcrowding over the subsequent 48 h of incubation at 37°C and 5% CO2. On the day of assay, cells were dissociated with phosphate buffered saline- (PBS-)EDTA solution (137 mM NaCl, 2.7 mM KCl, 10 mM Na2HPO4, 1.8 mM KH2PO4, 1 mM EDTA) and re-suspended in stimulation buffer (1.26 mM CaCl2, 0.49 mM MgCl2, 0.41 mM MgSO4, 5.33 mM KCl, 0.44 mM KH2PO4, 4.17 mM NaHCO3, 138 mM NaCl, 0.34 mM Na2HPO4, 5.56 mM D-glucose, 5 mM HEPES, 0.5 mM IBMX, 0.1% BSA; pH 7.4). […] After incubation, the plate was read in a Flexstation 3 plate reader (Molecular Devices, Sunnyvale, CA, United States).
Data from cellular assays were analyzed using GraphPad Prism 7.01 (GraphPad Software, San Diego, CA, United States). […]
In general terms: Changes in cAMP serve as a functional read-out for many G protein-coupled receptors.

Assay [2] has as its target T1, human CRF1R (Homo sapiens, UniProt P34998).
T1 construct: expressed in transfected cells; host or cells: HEK293
T1 sequence (P34998 24-415): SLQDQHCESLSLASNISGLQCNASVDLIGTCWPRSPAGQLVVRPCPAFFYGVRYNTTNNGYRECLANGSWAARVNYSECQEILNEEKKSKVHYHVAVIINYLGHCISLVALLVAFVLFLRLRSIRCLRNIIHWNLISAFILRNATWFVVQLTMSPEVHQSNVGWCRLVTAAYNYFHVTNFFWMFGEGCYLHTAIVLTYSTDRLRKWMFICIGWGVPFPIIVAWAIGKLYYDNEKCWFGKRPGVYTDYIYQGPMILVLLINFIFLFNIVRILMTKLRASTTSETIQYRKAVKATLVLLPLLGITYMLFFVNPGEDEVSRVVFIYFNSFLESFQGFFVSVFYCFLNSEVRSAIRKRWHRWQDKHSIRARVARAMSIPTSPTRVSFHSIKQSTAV
Briefly: cAMP accumulation assay at CRF1R (LANCE Ultra cAMP). It counts as cell-based. The method, then: Receptor-mediated cAMP accumulation was measured in HEK293 cells transiently transfected with the human CRF1R (with C-terminal GFP tag) using the LANCE® Ultra cAMP Detection kit (PerkinElmer, Waltham, MA, United States). To prepare for experiments, HEK293 cells were grown to confluence in a 6-well plate, followed by transfection with 2.5 μg of plasmid DNA per well using the Lipofectamine® 2000 transfection reagent (Thermo Fisher Scientific). After 4–6 h post-transfection, the cell media was replaced, followed by dissociation of cells via trituration and division of the cell suspension to avoid overcrowding over the subsequent 48 h of incubation at 37°C and 5% CO2. On the day of assay, cells were dissociated with phosphate buffered saline- (PBS-)EDTA solution (137 mM NaCl, 2.7 mM KCl, 10 mM Na2HPO4, 1.8 mM KH2PO4, 1 mM EDTA) and re-suspended in stimulation buffer (1.26 mM CaCl2, 0.49 mM MgCl2, 0.41 mM MgSO4, 5.33 mM KCl, 0.44 mM KH2PO4, 4.17 mM NaHCO3, 138 mM NaCl, 0.34 mM Na2HPO4, 5.56 mM D-glucose, 5 mM HEPES, 0.5 mM IBMX, 0.1% BSA; pH 7.4). Stimulation of cAMP accumulation via the human CRF1R and the human V2R used 500 cells and 300 cells (expressing these receptors) per well, respectively, in 384-well white Cellstar® plates (Greiner Bio-One, Kremsmuenster, Austria). Cells were incubated with the respective cognate receptor agonist peptides, in the absence and presence of cyclotide, for 30 min at 23°C in a final volume of 10 μL of stimulation buffer. Termination of cAMP accumulation was performed with the addition of 5 μL of Eu-cAMP tracer solution and 5 μL of ULight-anti-cAMP antibody solution, each prepared in detection buffer, followed by incubation of the plate for 1 h at 23°C with the lid on. After incubation, the plate was read in a Flexstation 3 plate reader (Molecular Devices, Sunnyvale, CA, United States).
Data from cellular assays were analyzed using GraphPad Prism 7.01 (GraphPad Software, San Diego, CA, United States). Concentration-response curve data were fitted to the three-parameter logistic equation to derive estimates of potency (LogIC50, luciferase; LogEC50, cAMP) and efficacy (Emax), relative to the maximal agonist control response. CRF LogEC50 values in the absence and presence of caripe 8 were statistically compared via extra sum-of-squares F test analysis. Other statistical analyses were performed as appropriate using one-way analysis of variance (ANOVA) with Bonferroni’s post-test, and significance taken as p < 0.05.

Assay [3] concerns the target T1, human CRF1R. Briefly: CRE luciferase reporter gene assay (CRF1R antagonism/agonism). It counts as cell-based. To be noted: fraction F, relative to the other identified cyclotides. The method, then:
The ipecac extract was tested for its modulating effect on CRF1R signaling using a cell-based luciferase reporter assay. HEK293 cells transiently transfected with an C-terminally GFP-tagged human CRF1R and a luciferase-coupled cAMP response element (CRE) were stimulated with varying concentrations of ipecac extract (0.01–50 μg mL^-1) in the presence and absence of 50 nM endogenous corticotropin-releasing factor (CRF) ligand. Concentration-dependent inhibition of receptor signaling was determined by measuring luciferase induction and accounting for the fluorescence of receptor-positive cells. The amount of luminescence of the control samples incubated with hormone alone was defined as 100% efficacy (Figure 1E). The inhibitory potency of the corresponding cyclotide-containing ipecac extract was measured and normalized relative to the efficacy of the control. […] The inhibitory potency of the ipecac extract to antagonize CRF1R signaling was determined as half-maximal concentration (IC50) as 2.0 μg mL^-1 (Figure 1F). […]
After confirming the presence of cyclotides in the ipecac extract, we aimed to isolate the cyclotides responsible for CRF1R antagonism using a bioassay-guided fraction approach. […] All fractions were analyzed by analytical HPLC and MALDI-TOF MS. […] Fractions C and D were determined to contain at least two cyclotides (Figures 4B,C and Supplementary Figure 1). […]
In general terms: In a reporter assay the amount or activity of a reporter protein is the signal.

Assay [4] has as its system oxytocin receptor. To be noted: ref Koehbach et al. (2013b); cited from earlier work. An excerpt:
(§1) Cyclotides are plant-derived cyclic peptides that are currently of great interest as lead molecules and peptide scaffolds for pharmaceutical drug development ([Thell et al., 2016]; [Craik and Du, 2017]). They were first isolated from O. affinis (Rubiaceae), a plant used as herbal preparation (‘kalata-kalata’) in traditional Congolese medicine for its uterotonic properties ([Gran, 1970]; [Craik et al., 1999]; [Gran et al., 2000]). Evidence-based proof of the plant’s traditional use in childbirth and post-partum care was provided in 2013; [Koehbach et al. (2013b)] isolated the cyclotide kalata B ...

The test system of assay [5] is vasopressin V1a receptor. To be noted: ref Koehbach et al. (2013b); cited from earlier work.
Text: as §1

“GVIPCGESCVFIPCITAAI–GCSCKKKVCYRN (bicyclic or more) [caripe 8, natural bracelet cyclotide isolated from fraction F of ipecac root extract]”: in assay [1] (AVP 50 pM), the “effect on arginine-vasopressin-stimulated cAMP accumulation” value is “not altered”. Moreover, in assay [1] (forskolin 300 nM), the “effect on forskolin-stimulated cAMP accumulation” value was “not altered”. The “fold reduction of CRF potency” value in assay [2] (260 nM caripe 8, CRF concentration-response, HEK293 with human CRF1R, 30 min, 23°C, pH 7.4, six independent experiments in triplicate) was “approximately 4.5 fold”. In addition, the “effect on CRF maximal response” value in assay [2] (260 nM caripe 8, CRF concentration-response, six experiments in triplicate) is reported as “lack of effect”. Further, the “difference of CRF LogEC50 in absence and presence of caripe 8” value in assay [2] (260 nM caripe 8, extra sum-of-squares F test, six experiments in triplicate) was “significantly different from each other (p < 0.05)”. For the same substance, in assay [2] (2.6, 26 and 260 nM cyclotide with an EC50 / approximate EC80 (Fig. 6A) of CRF, 30 min, 23°C, three experiments in triplicate), the “inhibition of CRF1R-mediated cAMP response to CRF” value is listed as “modest concentration-dependent inhibition”. Besides, in assay [2] (HEK293, human CRF1R, submaximal agonist concentrations of forskolin), the “effect on cAMP accumulation in combination with submaximal forskolin” value was “no effect”. Moreover, in assay [2] (HEK293 transiently expressing human CRF1R, cyclotide alone, 30 min, 23°C, pH 7.4), the “intrinsic activity in the cAMP assay” value was “did not exhibit any intrinsic activity”. Besides, in assay [2] (suggested from modest and limited antagonism), the “mode of antagonism at CRF1R” value is on record as “does not interact competitively with the CRF binding site”. Also, the “limit of concentration-dependent inhibition of CRF-mediated cAMP response (data not shown)” value in assay [2] (titration with CRF, data not shown) is on record as “observed to reach a threshold”. For the same substance, the “relative effectiveness as inhibitor of CRF1R-mediated luciferase activity” value in assay [3] is listed as “the most effective inhibitor”.
For kalata B7, in assay [4], the “affinity and potency at oxytocin receptor” value is “moderate affinity and potency (μM-concentration range)”; the “mode of action at oxytocin receptor” value is “partial agonist”. Further, in assay [5], the “affinity and potency at vasopressin V1a receptor” value is “moderate affinity and potency (μM-concentration range)”; the “mode of action at vasopressin V1a receptor” value is listed as “partial agonist”.
